# Assay results: patent publication US5053431A, “Derivatives of chrysophanol as topoisomerase II inhibitors” (Sloan-Kettering Institute For Cancer Research, priority 1990, dated 1991)
# Where two headings read alike, the source gives them in different places.
# How the values were obtained:
# [1] = system: peroxidases; settings: literature; cited from earlier work
# [2] = system: cancer; settings: literature; cited from earlier work
# [3] = system: proteins, polyadenylate, RNA, DNA; settings: literature; cited from earlier work
# [4] = system: DNA; settings: literature; cited from earlier work
# [5] = Solubility in aqueous solutions; assay type: physicochemical
# [6] = Stability of compound; assay type: physicochemical
# [7] = system: human leukemia HL-60 cells; test: HL-60 cell growth inhibition (72 h); assay type: cell-based; settings: HL-60, 72 h, read-out: ID50, M [HL-60 cell growth (72 h)] (A)
# Protocol: For cell growth inhibition studies, HL-60 cells […]) were grown in RPMI 1640 media at 37° C. in humidified 5% CO2 for 72 h. Viable cells were counted with the trypan blue exclusion method. The fractional inhibitions at four or five concentrations of compounds (in 0.2% DMSO) were analyzed with a median-effect plot (Chou, T.-C., et al., Adv. Enzyme Regul. 22:27 (1984)) by using a computer program. (Chou, J.; Chou, T.-C. Dose-Effect Analyses with Microcomputer. Quantitation of ID50, LD50, Synergism, Antagonism, Low-dose Risk, Receptor-Binding and Enzyme Kinetics; IBM-PC Series, Elsevier-Biosoft, Elsevier Scientific: Cambridge, U.K., (1986)). The median-effect concentration (ID50) was automatically determined for the x intercept of the median-effect plot. Cell growth in the absence of a compound and in the presence of DMSO was used as a control. DMSO (0.2%) alone inhibited cell growth 3.8±1.2% during the 72-h incubation period.
# [8] = system: [^3 H]TdR incorporation into DNA in HL-60 cells; test: Inhibition of [3H]TdR incorporation into DNA in HL-60 cells (initial 30 min); assay type: cell-based, human; settings: for IC50: HL-60, initial 30 min exposure, read-out: ID50, M (HL-60 TdR into DNA (B)); for B/A: ratio of ID50 for TdR incorporation (B) to ID50 for cell growth (A), HL-60
# Protocol: For precursor incorporation studies, each compound at four to six concentrations (0.2% DMSO) was preincubated with HL-60 cells (2.5×10^6 /Ml) for 15 min prior to the addition of [^3 H-methyl]TdR (1 μCi, 0.15 nmol/mL) and was incubated for 30 min. […] The incorporation of radioactivity in DNA in the absence of an analogue in the presence of DMSO was used as a control.
# [9] = system: mouse leukemia L1210 cells; test: Inhibition of L1210 cell growth; assay type: cell-based
# Protocol: Preliminary biological data for inhibiting cell growth of murine L1210 leukemic cells and human acute promyelocytic leukemia cells (HL-60) during 72 h of exposure to the compounds are given in Table IV. The potencies for inhibiting [^3 H]TdR incorporation into DNA in HL-60 cells during the initial 30-min period are also given in Table IV. It is interesting to note that 1,8-di-O-methyl derivatives are uniformly devoid of activity against L1210 leukemic cells. […] The B/A ratios allow an indirect estimation of whether or not cytotoxicities exerted by these analogues are primarily due to initial inhibition of DNA synthesis. […] Whether these analogues, like m-AMSA, ellipticine, or anthracyclines, act by inhibiting DNA topoisomerase II remains to be explored. […] Our preliminary experiments indicate that the compounds arrest cells in the S and/or G2 phases of the cell cycle (unpublished results).
# [10] = system: Topo II; test: Inhibition of kDNA decatenation; assay type: biochemical
# [11] = system: Topo II; test: Heat reversal of protein-linked DNA complex; assay type: biochemical, human (HL-60); settings: 65 degrees C
# Protocol: (§1) This experiment concerns Topoisomerase II (Topo II)-mediated DNA cleavage activity induced by chrysophanol derivatives. 3-(bis[2-chloroethyl]amino)methyl-1,8-dihydroxy-9,10-anthraquinone (SK-31662) and 3-(2-hydroxyethylamino)methyl-1,8-dihydroxy-9,10-anthraquinone (SK-31694) have antileukemic activity with IC>es of 0.14 and 0.86 uM, respectively. SK-31662 and SK-31694 inhibit kDNA decatenation at 48 and 38 uM, respectively.
# [12] = system: Topo II; test: Mapping of DNA-Topo II cleavage sites (Hind III-digested 3'-labeled DNA, HL-60 nuclear extracts); assay type: biochemical, human (HL-60); settings: 10 uM
# Protocol: as §1
# [13] = system: leukemic cells; test: Antileukemic activity (Experiment 3); assay type: cell-based; settings: read-out: antileukemic activity IC>es
# [14] = system: Topo II; test: Topo II cleavable complex formation; assay type: biochemical, human (HL-60); settings: 3'-labeled DNA and NE of HL-60
# Protocol: as §1
# [15] = system: leukemia L1210/Cisplatin; test: Activity against Cisplatin-resistant leukemia L1210 in mice; assay type: in vivo, mouse
# Protocol: At the dosage of 100 mg/kg/day×5 (ip), mice inoculated with Cisplatin resistant leukemia L1210/Cisplatin are cured.
# [16] = system: DNA (native and thermally denatured); test: Spectrophotometric study of DNA interaction; assay type: binding, calf thymus; settings: Me2 SO to 1:1 v/v
# Protocol: Some representative compounds were studied for their ability to interact with nucleic acids in solution by comparison of the electronic spectrum of drug alone with that of the drug in the presence of an excess of nucleic acid. All drugs studied have an absorption band in the visible region, separate from the absorption band of the nucleic acids, and therefore any changes in band intensity and position were indicative of drug chromophore-DNA interaction.
# Absorption spectra were measured with an IBM 9410 UV-visible spectrometer interfaced to an HP 9826 computer. Small volumes of the stock drug solutions (2 mg/mL in Me2 SO) were added to 2 mL of buffer (0.01 or 0.1 M NaCl, 5 mM Hepes, pH 7) to obtain a final drug concentration of 5-15 μM, or to the solution of native or thermally denatured DNA (0.2 and 0.1 mM, respectively) in the buffer. After incubation at room temperature for 10 min, the spectra were recorded in the 300-600 nm range (increment 1 nm) and corrected by subtracting the spectrum of the blank which was measured before addition of the drug.
compound,measurement,setting,value
"Cc1c2cc[n+](C)cc2c(C)c2c1[nH]c1ccc(O)cc12 [9-OH-NME, 2-N-Methyl-9-hydroxyellipticinium]",oxidation by peroxidases,[1],easily oxidized by peroxidases
same,anticancer activity,[2],one of the most active drugs among the ellipticine analogues
"Cc1c2c(c(C)c3c[n+](C)ccc13)C1=CC(=O)C=CC1=N2 [9-oxo-NME, 9-oxo-2-methylellipticinium]",alkylation of macromolecules,[3],easily alkylated by 9-oxo-NME
COc1c(O)c2c(c3cc(C(=O)N4CCc5c4c(O)c(OC)c4[nH]c(C(=O)N6CC7CC78C6=CC(=O)c6[nH]cc(C)c68)cc54)[nH]c13)CCN2C(N)=O (stereo not shown) [CC1065],DNA binding / alkylation,[4],binds to the minor groove of DNA by nonintercalative means and then slowly alkylates the amino group of adenine
"Cc1cc(O)c2c(c1)C(=O)c1cccc(O)c1C2=O [IIa, chrysophanol]",solubility in aqueous solutions,[5],low solubility in aqueous solutions
"Cc1cc(O)c2c(c1)C(=O)c1cc(O)cc(O)c1C2=O [IIb, emodin]",solubility in aqueous solutions,[5],low solubility in aqueous solutions
"COc1cccc2c1C(=O)c1c(OC)cc(CNCCCl)cc1C2=O [IXa-7, 3-[N-(2-chloroethyl)amino]methyl-1,8-dimethoxy-9,10-anthraquinone]",stability,[6],unstable
same,IC50,[7]; Homo sapiens,86 µM
same,IC50,"[8]; Homo sapiens, 0.5 h",19 µM
same,B/A,[8],0.22
same,IC50,"[9]; Mus musculus, L1210, 72 h, read-out: ID50, M (L1210 cell growth)",26 µM
"O=C1c2cccc(O)c2C(=O)c2c(O)cc(CN(CCCl)CCCl)cc21 [XIa-3, 3-(bis[2-chloroethyl]amino)methyl-1,8-dihydroxy-9,10-anthraquinone]",concentration that inhibits kDNA decatenation,[10],48 µM
same,reversal of protein-linked DNA by heat,[11],cannot be reversed up to 15 min
same,"protein-linked DNA breaks, cleavage site pattern",[12],induce protein-linked DNA breaks with a cleavage site pattern similar to m-AMSA
same,IC50,[13],0.14 µM
same,IC50,[7]; 0.2% DMSO,0.18 µM
same,formation of Topo II cleavable complex,[14],stimulate the formation of Topo II cleavable complex
same,IC50,[8],69 µM
same,B/A,[8],383
same,cure of mice inoculated with Cisplatin resistant leukemia L1210/Cisplatin,[15]; 100 mg/kg/day×5 (ip),cured
same,potency against mouse leukemia L1210 made resistant to Cisplatin,"[15]; mouse, in vivo",extremely potent
same,ID50,[9]; Table I,0.058 µg/mL
same,IC50,"[9]; Table I, read-out: ID50 (the source's name)",0.13 µM
"O=C1c2cccc(O)c2C(=O)c2c(O)cc(CNCCO)cc21 [XIa-6, 3-(2-hydroxyethylamino)methyl-1,8-dihydroxy-9,10-anthraquinone]",concentration that inhibits kDNA decatenation,[10],38 µM
same,reversal of protein-linked DNA by heat,[11],reduced during 0.5 min exposure to 65 °C
same,"protein-linked DNA breaks, cleavage site pattern",[12],induce protein-linked DNA breaks with a cleavage site pattern similar to m-AMSA
same,IC50,[13],0.86 µM
same,IC50,"[7]; Homo sapiens, 0.2% DMSO",0.86 µM
same,formation of Topo II cleavable complex,[14],stimulate the formation of Topo II cleavable complex
same,IC50,"[8]; Homo sapiens, 0.5 h",15 µM
same,B/A,[8],17.4
same,IC50,"[9]; Mus musculus, L1210, Table I, read-out: ID50 (the source's name)",0.16 µM
same,IC50,"[9]; Mus musculus, L1210, Table I, read-out: ID50 (μg/mL)",0.066 µg/mL
"O=C1c2cccc(O)c2C(=O)c2c(O)cc(CNCCCl)cc21 [XIa-7, 3-[N-(2-chloroethyl)amino]methyl-1,8-dihydroxy-9,10-anthraquinone]",stability,[6],unstable
same,IC50,[7]; Homo sapiens,7.5 µM
same,IC50,"[8]; Homo sapiens, 0.5 h",39 µM
same,B/A,[8],5.2
same,IC50,"[9]; Mus musculus, L1210, read-out: ID50 (μM)",7.11 µM
same,IC50,"[9]; Mus musculus, L1210, read-out: ID50 (μg/mL)",2.37 µg/mL
same,reversal of DNA induced changes in absorption spectra by Me2SO,[16],could be reversed by addition of Me2 SO
